Test system: mouse breast cancer 4T1 cells xenografts
Assay: In vivo validation of Targeted Osmotic Lysis (TOL) in a breast cancer mouse model
Set-up: species or system BALBc mice
Conditions: TOL: 7 mg/kg digoxin s.c. five times at 1 hr intervals plus pulsed magnetic fields from toroid device for 30 min, day 0 and day 1; versus control groups; FIG. 9
Procedure: FIG. 9 depicts in vivo validation of the therapeutic efficacy of pulsed magnetic fields inducing osmotic lysis in a breast cancer mouse model. Four groups of female, immune competent BALBc mice (n=8) with xenografts (0.7-1.2 cm diameter lower back) were established after injection of 500K highly malignant mouse breast cancer 4T1 cells in 7 mg/kg digoxin or saline (s.c. back of neck) five times at 1 hr intervals. This protocol establishes steady-state pharmacokinetics in even poorly vascularized tissues. The mice were exposed to the pulsed magnetic fields generated by a toroid device, for 30 min starting 15 min after the last injection. This treatment was administered on day 0 (first day of treatment), and on day 1. Mice were monitored for tumor growth and were sacrificed when they met the NIH criteria for humane endpoint euthanasia.

For `C[C@H]1O[C@@H](O[C@H]2[C@@H](O)C[C@H](O[C@H]3[C@@H](O)C[C@H](O[C@H]4CC[C@@]5(C)[C@H](CC[C@@H]6[C@@H]5C[C@@H](O)[C@]5(C)[C@@H](C7=CC(=O)OC7)CC[C@]65O)C4)O[C@@H]3C)O[C@@H]2C)C[C@H](O)[C@@H]1O` [digoxin], the “time until mice reached humane endpoint euthanasia criteria” value was “significantly longer than mice in the control groups”.
